Test results published in patent US5175183A, “Lipoxygenase inhibiting compounds” (Abbott Laboratories, priority 1991, dated 1992).

Experiments:
Leukotriene Biosynthesis = assay: In Vivo Inhibition of Leukotriene Biosynthesis (rat peritoneal anaphylaxis model); settings: oral gavage 200 μmol/kg one hour prior to antigen challenge, peritoneal fluid leukotrienes 15 minutes after challenge, vs mean of control group
Procedure: Inhibition of the biosynthesis of leukotrienes in vivo after oral administration of compound was determined using a rat peritoneal anaphylaxis model. In this model rats were injected intraperitoneally (ip) with rabbit antibody to bovine serum albumin (BSA) and three hours later injected ip with BSA to induce an antigen-antibody response. Rats were sacrificed 15 minutes after this challenge and the peritoneal fluids were collected and analyzed for leukotriene levels. Test compound was administered by oral gavage one hour prior to the antigen challenge. Percent inhibition values were determined by comparing the treatment group to the mean of the control group.

5-lipoxygenase = biological target: T1, 5-lipoxygenase (Rattus norvegicus, UniProt P12527); assay: In Vitro 5-lipoxygenase Inhibitory Activity (20,000×g supernatant from homogenized RBL-1 cells); type: biochemical; settings: read-out: IC50 (concentration of compound producing 50% enzyme inhibition)
T1 construct: 20,000×g supernatant from homogenized RBL-1 cells; endogenous in cells; host or cells: RBL-1 cells (20,000×g supernatant of homogenate)
T1 sequence (P12527 1-673): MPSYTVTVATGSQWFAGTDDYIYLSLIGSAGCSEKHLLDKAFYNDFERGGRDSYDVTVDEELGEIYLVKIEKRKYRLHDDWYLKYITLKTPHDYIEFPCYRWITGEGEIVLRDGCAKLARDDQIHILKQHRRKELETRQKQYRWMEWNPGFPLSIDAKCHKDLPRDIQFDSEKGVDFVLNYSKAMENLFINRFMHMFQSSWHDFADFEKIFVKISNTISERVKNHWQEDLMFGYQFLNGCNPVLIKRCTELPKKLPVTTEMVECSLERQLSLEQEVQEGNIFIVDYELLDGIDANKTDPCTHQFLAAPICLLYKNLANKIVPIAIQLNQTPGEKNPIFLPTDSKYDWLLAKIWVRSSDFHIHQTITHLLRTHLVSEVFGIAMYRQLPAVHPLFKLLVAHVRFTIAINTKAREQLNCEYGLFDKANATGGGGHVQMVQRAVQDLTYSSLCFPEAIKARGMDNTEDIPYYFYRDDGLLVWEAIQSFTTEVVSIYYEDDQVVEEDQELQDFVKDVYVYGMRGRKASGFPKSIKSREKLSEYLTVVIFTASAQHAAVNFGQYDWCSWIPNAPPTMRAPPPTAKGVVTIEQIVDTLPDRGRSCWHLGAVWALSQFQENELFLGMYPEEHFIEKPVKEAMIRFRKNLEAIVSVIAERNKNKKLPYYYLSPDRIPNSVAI
Procedure: The compounds of this invention are potent inhibitors of 5-lipoxygenase. Their activity was determined using the 20,000×g supernatant from homogenized RBL-1 cells in a similar manner as that described by Dyer and coworkers (Dyer, R. D.; Haviv, F.; Hanel, A. M.; Bornemier, D. A.; Carter, G. W. Fed. Proc., Fed. Am. Soc. Exp. Biol. 1984, 43, 1462A). IC50 values (concentration of compound producing 50% enzyme inhibition) were calculated by linear regression analysius of percentage inhibition versus log inhibitor concentration plots.

IC50 (5-lipoxygenase) | Compound | Percent Inhibition With 200 μmol/kg oral dose (Leukotriene Biosynthesis)
28 µM | O=C(NO)N[C@@H]1C[C@H]1c1ccccc1 (relative stereo) [Example 11, N'-hydroxy-N-1-(trans-2-phenylcyclopropyl)urea] | 
8.4 µM | Cc1cc(C(C)NC(=O)NO)c(C)s1 (stereo not shown) [Example 9, N'-hydroxy-N-[1-(2,5-dimethylthien-3-yl)ethyl]urea] | 
4 µM | CN(O)C(=O)NCc1ccsc1 [Example 8, N'-hydroxy-N'-methyl-N-[(thienyl-3-yl)methyl]urea] | 92%
0.27 µM | CC(NC(=O)N(C)O)c1cc2ccccc2o1 (stereo not shown) [Example 10, N'-hydroxy-N'-methyl-N-[(1-benzofur-2-yl)-ethyl]urea] | 50%
12.7 µM | CC(NC(=O)NO)c1cc2ccccc2o1 (stereo not shown) [Example 7, N'-hydroxy-N-[(1-benzofuran-2-yl)ethyl]urea] | 
0.5 µM | Cc1cc(C(C)NC(=O)N(C)O)c(C)s1 (stereo not shown) [Example 13, N'-hydroxy-N'-methyl-N-[1-(2,5-dimethylthien 3-yl)ethyl]urea] | 49%
13 µM | O=C(NCc1ccsc1)N(O)CCO [Example 12, N'-hydroxy-N'-(2-hydroxyethyl)-N-[(thien-3-yl)-methyl]urea] | 79%

The next lines start with the compound.

Compound | IC50 (5-lipoxygenase) | Percent Inhibition With 200 μmol/kg oral dose (Leukotriene Biosynthesis)
CC(NC(=O)N(C)O)c1ccc(OCc2ccccc2)cc1 (stereo not shown) [Example 2, N'-hydroxy-N'-methyl-N-[1-(4-phenylmethoxyphenyl)ethyl]urea] | 0.3 µM | 86%
CCCCOc1ccc(C(C)NC(=O)NO)cc1 (stereo not shown) [Example 3, N'-hydroxy-N-[1-(4-butoxyphenyl)ethyl]urea] | 3.8 µM | 
CC(NC(=O)NO)c1ccc2ccccc2c1 (stereo not shown) [Example 4, N'-hydroxy-N-[(1-naphth-2-yl)ethyl]urea] | 4.6 µM | 
N'-hydroxy-N'methoxy-N-[(1-naphth-2-yl)ethyl]urea [Example 5] | 27 µM | 
CC(NC(=O)NO)c1ccc(OCc2ccccc2)cc1 (stereo not shown) [Example 1, N'-hydroxy-N-[1-(phenylmethoxyphenyl)ethyl]urea] | 1.2 µM | 
CN(O)C(=O)NCc1cccs1 [Example 6, N'-hydroxy-N'-methyl-N-[(thien-2-yl)methyl]urea] | 3.6 µM | 67%
